Assay [1] deals with Nck-SH2. As to the kind of experiment: Mass spectrometric analysis of Nck-p1 conjugate. The format is binding. How it is done: We next identified the residues in Nck-SH2 that are involved in the reaction with p1 by mass spectrometry. […] The Nck–p1 conjugate was digested with trypsin, and peptide fragments were analyzed with an in-line EASY-spray source and nano-LC UltiMate 3000 HPLC system interfaced with an Elite mass spectrometer, operated in the data-dependent acquisition (DDA) mode with one full MS scan at R = 60,000 (m/z = 200) mass followed by HCD MS/MS scans. […] The fragmentation spectral analysis of [EEHIpYXEVAAD(α)] + [HFKVQLK(β)] extracted by pLabel v2.4.3.0 (Figure 5a and Figure S6 in the Supporting Information)[38],[39] confirmed the ligand-directed conjugation of Nck-SH2 protein with p1 peptide. The underlined lysine residue in the β-chain sequence indicated the cross-linked site on the predicted Nck Lys331 residue. Next, we mutated Nck Lys331 to Ala, expressed and purified the Nck-SH2K331A mutant. […]
The reaction mixture of Nck and p1 were digested with trypsin. Digested peptides were analyzed with an in-line EASY-spray source and nano-LC UltiMate 3000 high-performance liquid chromatography system (Thermo Fisher, USA) interfaced with an Elite mass spectrometer (Thermo Fisher, USA). The eluted peptides were detected by the Elite mass spectrometer, which was operated in data-dependent mode with one full MS scan at R = 60,000 (m/z = 200) mass, followed by MS/MS scans. […]

The target in the next assay is T1, Nck (Homo sapiens, UniProt P16333).
T1 construct: GST (followed by PreScission/HRV 3C site) (N, cleaved yes); made in house; host or cells: E. coli BL21(DE3)
The experiment in a line: Reaction of peptides with Nck in Caco-2 cell lysate (Western blotting). The format is binding. Particulars: lysate of Caco-2 cells (5 µg/µl) overexpressing Nck; peptide 10 µM, 37 °C, 60 min; anti-Nck Western blot. How it is done:
(§1) In addition, we performed the reaction between p1 and Nck in a cell lysate, representing a complex solution. We incubated peptide p1 with the lysate of Caco-2 cells overexpressing Nck, and the reaction mixture was resolved on SDS-PAGE and analyzed with Western blotting against an anti-Nck antibody. […] Next, we incubated biotinylated peptide Y474 and Nck solutions with or without p1 peptide, and pulled down proteins that bound with biotinylated Y474.
Figure S7. Reaction of p1 in cell lysate. Biotinylated p1 peptide (10 µM) was incubated with the
lysate of Caco-2 cells (5 µg/µl)to react at 37 °C for 60 min before the mixture was resolved on SDS-
PAGE. Western blotting experiments using an anti-biotin antibody and an anti-Nck antibody, […]
A general note: Immunoblotting shows a protein as a band on a membrane.

For assay [2], the system named is Nck-SH2. The experiment in a line: Competitive pull-down of Nck with biotinylated Y474. In kind it is binding. Particulars: with or without p1. How it is done:
as §1

Assay [3] deals with Nck puncta in Caco-2 cells. As to the kind of experiment: Nck puncta number in Caco-2 cells overexpressing dsRed-Nck. The format is cell-based. The following applies: L17E 40 μM, p1 1 μM, N = 20 cells. An excerpt:
Figure 6 Peptide p1 inhibits the formation of the Nck/N-WASP condensate in mammalian cells. (a) Schematic illustration showing inhibition of intracellular Nck coacervation by p1. (b) Confocal microscopic images showing the formation of Nck/N-WASP puncta in HeLa cells that overexpress GFP-N-WASP and dsRed-Nck. Scale bar: 10 μm. (c) FRAP analysis showing the Nck/N-WASP condensates in HeLa cells have fluidity properties based on the recovery of the GFP fluorescent signal after photobleaching in a two-photon microscope with excitation at 920 nm. Scale bar: 5 μm. […] L17E, 40 μM; p1, 1 μM. Statistical analyses of puncta number per cell in the control and experiment (L17E/p1). N = 20 cells. […]
concentrations were added to each well, followed by a 90-min incubation at 37 °C. Diluted streptavidin-HRP solution was then added, followed by substrate solution to develop cover at 450 nm, and recorded by a plate reader. […] And then the samples were scanned and measured at 20% IR Laser power with 30 s laser-on time on a Monolith NT.115 instrument (NanoTemper Technologies). The data were analyzed by KD fitting model (KD) or hill fitting model […]
Plasmid extraction was done using a plasmid DNA Maxi kit (Omega Bio-Tek, GA, USA). […] 48 h after transfection, cells were analyzed by fluorescent micrscopes. Cell viability was measured by a CCK8 assay (Thermo Fisher Scientific) according to its manual.

The structures appear in SMILES notation. Non-standard residues stand in square brackets, D forms with d. Residues, ends and D or L forms follow the SMILES beside them. *: point of attachment. Biotin = O=C1N[C@H]2[C@H](CS[C@H]2CCCCC(=O)*)N1; Benzoyl(4-SO2F) = O=C(c1ccc(S(=O)(=O)F)cc1)*; pY = N[C@@H](Cc1ccc(OP(=O)(O)O)cc1)C(=O)O; Dap = NC[C@H](N)C(=O)O

In the case of `CC[C@H](C)[C@H](NC(=O)[C@H](Cc1c[nH]cn1)NC(=O)[C@H](CCC(=O)O)NC(=O)[C@H](CCC(=O)O)NC(=O)CCCC[C@@H]1SC[C@@H]2NC(=O)N[C@@H]21)C(=O)N[C@@H](Cc1ccc(OP(=O)(O)O)cc1)C(=O)N[C@@H](CNC(=O)c1ccc(S(=O)(=O)F)cc1)C(=O)N[C@@H](CCC(=O)O)C(=O)N[C@H](C(=O)N[C@@H](C)C(=O)N[C@@H](C)C(=O)N[C@@H](CC(=O)O)C(N)=O)C(C)C` [p1] (Biotin-EEHI[pY][Dap](Benzoyl(4-SO2F))EVAAD-NH2; N-terminus and C-terminus assumed), in the assay on Nck-SH2 [1] (Nck and Nck-p1 conjugate), the “conjugation stoichiometry by LC-MS” value is on record as “only one p1 was conjugated with Nck”. The “reaction site on Nck-SH2” value in the assay on Nck-SH2 [1] (trypsin digest, MS/MS, K331A mutation) is reported as “Lys331”. Besides, the “Nck band shift in cell lysate” value at Nck is “complete band shift”. For the same molecule, the “binding of Nck to biotinylated Y474 in pull-down” value in the assay on Nck-SH2 [2] is reported as “the Nck protein did not bind with Y474”. For the same molecule, in assay [3], the “number of Nck puncta” value is recorded as “reduced the number of Nck puncta”. Besides, the “decline in Nck puncta numbers” value in assay [3] (2 h) is listed as 50%.
